Data published in the CheMixHub viscosity set.

Experiment: xn = mol fraction of the nth substance listed

CCN(CC)CC + CCCCCC
viscosity [mPa·s], 101.33 kPa
Conditions	x1 = 0.1076	x1 = 0.2064	x1 = 0.4089	x1 = 0.5106	x1 = 0.6081	x1 = 0.804	x1 = 0.9018
303.15 K	0.2744	0.276	0.2838	0.2911	0.3002	0.3248	0.3408
313.15 K	0.2432	0.2489	0.2626	0.271	0.2799	0.3004	0.3125

ClC(Cl)(Cl)Cl + CCCCCC
298.15 K, 101 kPa
Conditions	viscosity [mPa·s]
x1 = 0.1	0.3171
x1 = 0.1729	0.3422
x1 = 0.2	0.3432
x1 = 0.3	0.3743
x1 = 0.3869	0.4102
x1 = 0.4	0.4105
x1 = 0.5	0.4532
x1 = 0.5869	0.5067
x1 = 0.6	0.5052
x1 = 0.7	0.5705
x1 = 0.7906	0.6461
x1 = 0.8	0.6544
x1 = 0.9	0.7635

CCN(CC)CC + CCCCCCC
303.15 K, 101 kPa
Conditions	viscosity [mPa·s]
x1 = 0.00966	0.3735
x1 = 0.01875	0.3719
x1 = 0.02995	0.3707
x1 = 0.0422	0.3687
x1 = 0.04845	0.3675
x1 = 0.05931	0.3663
x1 = 0.07022	0.365
x1 = 0.07742	0.3639
x1 = 0.08877	0.363
x1 = 0.09882	0.3622

CCN(CC)CC + CCCCCCCC
viscosity [mPa·s], 101.33 kPa
Conditions	x1 = 0.1983	x1 = 0.4032	x1 = 0.5055	x1 = 0.6044	x1 = 0.7987	x1 = 0.9028
303.15 K	0.4507	0.4233	0.411	0.3999	0.3795	0.3694
313.15 K	0.3913	0.3701	0.3605	0.3523	0.3379	0.331

CCCOC(C)=O + CCCCCCCCCC
298.15 K, 101.33 kPa
Conditions	viscosity [mPa·s]
x2 = 0.0879	0.565
x2 = 0.1221	0.571
x2 = 0.1602	0.578
x2 = 0.2376	0.591
x2 = 0.3166	0.606
x2 = 0.3821	0.62
x2 = 0.4847	0.644
x2 = 0.6012	0.678
x2 = 0.715	0.718
x2 = 0.8476	0.776
x2 = 0.9258	0.817

ClC(Cl)(Cl)Cl + CCCCCCCCCCO
298.15 K, 101 kPa
Conditions	viscosity [mPa·s]
x2 = 0.05	1.031
x2 = 0.097	1.224
x2 = 0.15	1.441
x2 = 0.2	1.775
x2 = 0.39	3.091
x2 = 0.49	4.012
x2 = 0.59	5.08
x2 = 0.8	7.86

CCCC[N+](CCCC)(CCCC)CCCC.[I-] + CCCCCCCCCO
101.3 kPa, x1 = 0.0476
Conditions	viscosity [mPa·s]
293.15 K	16.29
298.15 K	13.16
303.15 K	10.92
308.15 K	9.085
313.15 K	7.675
318.15 K	6.439
323.15 K	5.529

CCCOC(C)=O + CCCCCCCCO
viscosity [mPa·s], 101 kPa
Conditions	x2 = 0.075	x2 = 0.1542	x2 = 0.2382	x2 = 0.3272	x2 = 0.4218	x2 = 0.5225	x2 = 0.6299	x2 = 0.7448	x2 = 0.8678
298.15 K	0.692	0.851	1.053	1.316	1.666	2.143	2.823	3.811	5.28
303.15 K	0.638	0.776	0.955	1.185	1.488	1.897	2.47	3.302	4.526
308.15 K	0.584	0.705	0.862	1.061	1.323	1.671	2.154	2.848	3.868
313.15 K	0.533	0.638	0.774	0.95	1.177	1.475	1.885	2.468	3.326

ClC(Cl)(Cl)Cl + CCCCCCCCO
viscosity [mPa·s], 101 kPa
Conditions	298.15 K	308.15 K	318.15 K
x2 = 0.023	0.92	0.796	0.696
x2 = 0.06	1	–	–
x2 = 0.1038	1.1	0.937	0.805
x2 = 0.12	1.139	–	–
x2 = 0.17	1.297	–	–
x2 = 0.2244	1.468	1.221	1.029
x2 = 0.23	1.47	–	–
x2 = 0.3266	1.867	1.527	1.255
x2 = 0.44	2.483	–	–
x2 = 0.54	3.124	–	–
x2 = 0.5645	3.223	2.495	1.946
x2 = 0.64	3.847	–	–
x2 = 0.7021	4.311	3.197	2.447
x2 = 0.83	5.58	–	–
x2 = 0.8568	5.746	4.172	3.118

ClC(Cl)(Cl)Cl + CCCCCCCO
viscosity [mPa·s], 101 kPa
Conditions	298.15 K	308.15 K	318.15 K
x2 = 0.0559	0.969	0.832	0.725
x2 = 0.07	0.982	–	–
x2 = 0.13	1.102	–	–
x2 = 0.147	1.151	1.004	0.867
x2 = 0.19	1.237	–	–
x2 = 0.25	1.402	–	–
x2 = 0.2529	1.453	1.227	1.052
x2 = 0.3189	–	1.321	1.096
x2 = 0.3828	1.836	1.489	1.231
x2 = 0.47	2.175	–	–
x2 = 0.57	2.716	–	–
x2 = 0.6371	3.08	2.329	1.851
x2 = 0.67	3.302	–	–
x2 = 0.7713	3.949	2.943	2.256
x2 = 0.816	4.238	3.167	2.422
x2 = 0.84	4.527	–	–
